In ChEMBL document CHEMBL1201862, “PubChem BioAssay data set” (2004):
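Results reflect a 48-hour exposure of cells in 96-well plates to compound at five concentrations. GI50 = concentration required for 50% inhibition of growth.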 The source made the active and inactive calls. No stated cut-off is given here; in the data, active = GI50 up to about 1.1 µM and inactive = higher.

What was measured:
Test in all cases: growth of human tumour cells (NCI), 48 h
[1] = system: 786-0
[2] = system: ACHN
[3] = system: CCRF-CEM
[4] = system: COLO 205
[5] = system: HCC 2998
[6] = system: MOLT-4
[7] = system: NCI-H226
[8] = system: NCI-H522
[9] = system: OVCAR-4
[10] = system: OVCAR-5
[11] = system: OVCAR-8
[12] = system: SF-268
[13] = system: SF-295
[14] = system: SF-539
[15] = system: SK-MEL-28
[16] = system: SK-MEL-2
[17] = system: SK-OV-3
[18] = system: SN12C
[19] = system: SW-620
[20] = system: SNB-75

Measured: GI50

C#CCCCOc1ncccn1
inactive: [1] > 100 µM | [2] > 100 µM | [3] > 10 µM | [4] > 100 µM | [5] > 100 µM | [6] > 100 µM | [7] > 100 µM | [8] > 100 µM | [9] > 100 µM | [10] > 100 µM | [11] > 100 µM | [12] > 100 µM | [13] > 100 µM | [14] > 100 µM | [15] > 100 µM | [16] > 100 µM | [17] > 100 µM | [18] > 100 µM | [19] > 100 µM

COc1ccc(CC2c3cc4c(cc3CCN2C)OCO4)c(C=O)c1OC (configuration not stated)
inactive: [1] > 100 µM | [2] > 100 µM | [3] > 100 µM | [4] > 100 µM | [5] > 100 µM | [6] > 100 µM | [7] 57.9 µM | [8] > 100 µM | [9] > 100 µM | [10] > 100 µM | [11] > 100 µM | [12] > 100 µM | [13] > 100 µM | [14] > 100 µM | [15] > 100 µM | [16] > 100 µM | [17] > 100 µM | [18] > 100 µM | [20] 40.8 µM | [19] > 100 µM

O=[N+]([O-])CC(SCc1ccccc1)c1ccc2c(c1)OCO2 (configuration not stated)
inactive: [1] 1.68 µM | [2] 13.1 µM | [3] 2.54 µM | [4] 8.24 µM | [5] 5.57 µM | [6] 3.37 µM | [7] 7.91 µM | [8] 11.5 µM | [9] 13.2 µM | [10] 15.2 µM | [11] 8.49 µM | [12] 9.4 µM | [13] 7.76 µM | [14] 4.01 µM | [15] 5.82 µM | [16] 21.1 µM | [17] 15.1 µM | [18] 11.7 µM | [20] 15.1 µM | [19] 3.81 µM

CCOC1C(Br)Cn2c(=O)c3cc4ccccc4cc3c(=O)n2C1C (configuration not stated)
inactive: [1] > 100 µM | [2] > 100 µM | [3] 50.1 µM | [4] 56.6 µM | [5] 50.6 µM | [6] 29.4 µM | [7] > 100 µM | [8] 1.67 µM | [9] > 100 µM | [10] > 100 µM | [11] > 100 µM | [12] > 100 µM | [13] 71.8 µM | [14] > 100 µM | [15] > 100 µM | [16] > 100 µM | [17] > 100 µM | [18] > 100 µM | [20] 39.4 µM | [19] 91.8 µM

O=C(NCCCCCCCCCCCCNC(=O)c1cnc2ccccc2n1)c1cnc2ccccc2n1
inactive: [1] 31.7 µM | [2] 44.3 µM | [3] > 100 µM | [4] > 100 µM | [5] > 100 µM | [6] > 100 µM | [7] 48 µM | [8] 19 µM | [9] 13.6 µM | [11] 9.4 µM | [12] > 100 µM | [13] 37 µM | [14] 15.1 µM | [15] > 100 µM | [16] > 100 µM | [17] 22.6 µM | [18] 66.1 µM | [20] 20.8 µM | [19] > 100 µM

OCC(S)CS.[Bi] (configuration not stated)
inactive: [1] 11.2 µM | [2] 16.5 µM | [3] 1.25 µM | [4] 14.5 µM | [5] 13.6 µM | [7] 51.8 µM | [8] 1.58 µM | [9] 23.6 µM | [10] 19.9 µM | [11] 19.5 µM | [12] 5.43 µM | [13] 48.2 µM | [14] 15.4 µM | [15] 12 µM | [16] 12.6 µM | [17] 31.6 µM | [18] 15.8 µM | [20] 11.1 µM | [19] 16 µM

COC(=O)c1c2c(c(-c3ccccc3)c3c1-c1nc(Cl)ccc1CC3)CCc1ccc(Cl)nc1-2
inactive: [1] > 100 µM | [2] > 100 µM | [3] > 100 µM | [4] > 100 µM | [5] > 100 µM | [6] > 100 µM | [7] 52.6 µM | [8] 77.1 µM | [9] > 100 µM | [10] > 100 µM | [11] 65.2 µM | [12] 78.5 µM | [13] 44.6 µM | [14] 45.5 µM | [15] > 100 µM | [17] > 100 µM | [18] > 100 µM | [20] 32.3 µM | [19] > 100 µM

O=C(NN1C(=O)C=CC1=O)c1ccccc1Nc1ccccc1C(=O)NN1C(=O)C=CC1=O
inactive: [1] > 100 µM | [2] > 100 µM | [3] > 100 µM | [4] > 100 µM | [5] > 100 µM | [6] > 100 µM | [7] > 100 µM | [8] > 100 µM | [9] > 100 µM | [10] > 100 µM | [11] > 100 µM | [12] > 100 µM | [13] > 100 µM | [14] > 100 µM | [15] > 100 µM | [16] > 100 µM | [18] > 100 µM | [20] > 100 µM | [19] > 100 µM

CC(C)=CCNc1nc(Cl)nc2[nH]cnc12
inactive: [1] 49.4 µM | [2] 54.1 µM | [3] 76.6 µM | [4] > 100 µM | [5] > 100 µM | [6] 84.9 µM | [7] > 100 µM | [8] > 100 µM | [9] 54.1 µM | [10] > 100 µM | [11] 46.5 µM | [12] 55 µM | [13] 42.6 µM | [14] > 100 µM | [15] > 100 µM | [17] 16.4 µM | [18] 57.7 µM | [20] > 100 µM | [19] > 100 µM

c1ccc2sc(C3(N4CCC5(CC4)OCCO5)CCCCC3)cc2c1
inactive: [1] 99.1 µM | [2] > 100 µM | [3] 29 µM | [4] 48 µM | [5] 27.7 µM | [6] 29.2 µM | [7] 18.6 µM | [8] 78 µM | [9] > 100 µM | [10] 55.5 µM | [11] > 100 µM | [12] > 100 µM | [13] > 100 µM | [14] > 100 µM | [15] > 100 µM | [17] > 100 µM | [18] 88.3 µM | [20] 56.4 µM | [19] > 100 µM

O=C1CCc2nc3ncccc3cc2C1
inactive: [1] > 100 µM | [2] > 100 µM | [3] 30.5 µM | [4] > 100 µM | [5] > 100 µM | [6] 29.9 µM | [7] > 100 µM | [8] 22.2 µM | [9] > 100 µM | [10] > 100 µM | [12] 51.8 µM | [13] > 100 µM | [15] > 100 µM | [16] > 100 µM | [17] > 100 µM | [18] > 100 µM | [20] > 100 µM | [19] 54.8 µM

O=[N+]([O-])C(/C=C(\Cl)[N+](=O)[O-])=C(N1CCCCC1)N1CCCCC1
inactive: [1] 36.6 µM | [2] 48.9 µM | [3] 13.2 µM | [4] 21.5 µM | [5] 44.7 µM | [6] 30.7 µM | [7] 56.5 µM | [8] 58.6 µM | [9] 23.9 µM | [10] 95.5 µM | [11] 44.8 µM | [12] 51.2 µM | [13] > 100 µM | [14] 25.9 µM | [15] 70.8 µM | [16] 30 µM | [17] > 100 µM | [18] 45 µM

CC(=O)Oc1ccc2c(c1)O/C(=C\c1ccc(N(C)C)cc1)C2=O
inactive: [1] > 100 µM | [2] > 100 µM | [3] 82.4 µM | [4] > 100 µM | [5] > 100 µM | [6] 47.1 µM | [7] > 100 µM | [8] 25.9 µM | [9] 75.2 µM | [11] > 100 µM | [12] > 100 µM | [14] 26.4 µM | [15] > 100 µM | [17] > 100 µM | [18] 62.7 µM | [20] 87.9 µM | [19] 52.2 µM

COc1ccc2[nH]c3c(c2c1)CC(=O)N1CCCC(CC3O)C1 (configuration not stated)
inactive: [1] > 100 µM | [2] > 100 µM | [4] > 100 µM | [5] > 100 µM | [7] > 100 µM | [8] > 100 µM | [9] > 100 µM | [11] > 100 µM | [12] > 100 µM | [13] > 100 µM | [14] > 100 µM | [15] > 100 µM | [16] > 100 µM | [17] > 100 µM | [18] > 100 µM | [20] > 100 µM | [19] > 100 µM

CCOC(=O)C(C[Si](C)(C)C)P(=O)(OCC)OCC (configuration not stated)
inactive: [1] > 100 µM | [2] > 100 µM | [3] > 100 µM | [4] > 100 µM | [5] > 100 µM | [6] > 100 µM | [7] > 100 µM | [8] > 100 µM | [9] > 100 µM | [10] > 100 µM | [11] > 100 µM | [12] > 100 µM | [13] > 100 µM | [14] > 100 µM | [15] > 100 µM | [17] > 100 µM | [18] > 100 µM | [20] 38.5 µM | [19] > 100 µM
